The record followed here is ChEMBL document CHEMBL2169789, “Potent HGF/c-Met axis inhibitors from Eucalyptus globulus: the coupling of phloroglucinol and sesquiterpenoid is essential for the activity” (J Med Chem, 2012).

One may read the inhibition as the change of the read-out against control, counted positive when it falls. In general, pIC50 refers to −log10 of the IC50, conventionally taken in molar units.

Assay [1] concerns the target T1, Hepatocyte growth factor receptor (Homo sapiens, UniProt P08581). Kind of assay: Inhibition of c-MET assessed as inhibition of HGF-induced phosphorylation at 5 uM by Western blotting analysis. For orientation: A western blot detects proteins with antibodies after separation by electrophoresis.
The target of assay [2] is Hepatocyte growth factor receptor (Canis lupus familiaris) (UniProt Q75ZY9). Kind of assay: Inhibition of c-MET in MDCK cells assessed as inhibition of HGF-induced cell scattering after 24 hrs by microscopic analysis. It counts as cell-based.
Hepatocyte growth factor receptor (Canis lupus familiaris), sequence (Q75ZY9 whole entry): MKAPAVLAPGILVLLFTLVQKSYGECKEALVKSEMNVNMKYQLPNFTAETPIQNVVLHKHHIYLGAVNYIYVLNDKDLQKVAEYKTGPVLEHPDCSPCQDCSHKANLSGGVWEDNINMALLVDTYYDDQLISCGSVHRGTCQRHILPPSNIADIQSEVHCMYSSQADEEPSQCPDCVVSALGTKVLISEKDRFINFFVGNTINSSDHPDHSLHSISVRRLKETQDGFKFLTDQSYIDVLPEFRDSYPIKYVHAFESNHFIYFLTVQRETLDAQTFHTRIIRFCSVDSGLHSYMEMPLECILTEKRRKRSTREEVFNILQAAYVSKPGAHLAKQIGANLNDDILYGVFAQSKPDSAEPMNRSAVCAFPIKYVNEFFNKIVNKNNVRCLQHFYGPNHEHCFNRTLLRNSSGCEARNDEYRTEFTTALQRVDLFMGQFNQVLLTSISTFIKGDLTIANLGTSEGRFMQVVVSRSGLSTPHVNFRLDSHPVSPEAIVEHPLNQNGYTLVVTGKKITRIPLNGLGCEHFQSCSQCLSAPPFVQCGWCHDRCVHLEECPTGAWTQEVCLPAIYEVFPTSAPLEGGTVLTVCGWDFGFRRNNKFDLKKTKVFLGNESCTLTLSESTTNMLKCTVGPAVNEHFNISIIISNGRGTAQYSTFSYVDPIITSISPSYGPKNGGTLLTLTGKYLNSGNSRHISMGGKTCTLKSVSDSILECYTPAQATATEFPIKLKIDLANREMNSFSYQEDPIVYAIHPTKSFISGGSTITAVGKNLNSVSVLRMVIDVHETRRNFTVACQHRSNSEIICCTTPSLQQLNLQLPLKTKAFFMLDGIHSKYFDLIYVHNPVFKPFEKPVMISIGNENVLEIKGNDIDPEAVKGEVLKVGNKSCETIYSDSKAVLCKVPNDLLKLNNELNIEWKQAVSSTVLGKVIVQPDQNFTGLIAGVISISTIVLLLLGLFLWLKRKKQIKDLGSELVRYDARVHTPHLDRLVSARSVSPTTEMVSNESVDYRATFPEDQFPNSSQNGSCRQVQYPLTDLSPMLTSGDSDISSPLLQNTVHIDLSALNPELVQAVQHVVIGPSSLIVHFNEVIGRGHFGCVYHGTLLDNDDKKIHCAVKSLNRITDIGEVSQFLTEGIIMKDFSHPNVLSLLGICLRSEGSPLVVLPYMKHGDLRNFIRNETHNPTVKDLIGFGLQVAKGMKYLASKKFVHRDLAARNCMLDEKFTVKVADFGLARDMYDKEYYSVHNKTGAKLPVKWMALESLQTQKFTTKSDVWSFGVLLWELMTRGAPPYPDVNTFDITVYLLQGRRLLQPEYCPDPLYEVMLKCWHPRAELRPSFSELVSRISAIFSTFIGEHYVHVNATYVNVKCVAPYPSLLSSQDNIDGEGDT
For assay [3] the target is unchanged. Briefly: Inhibition of HGF-induced phosphorylation of c-MET in MDCK cells at 5 uM after 2 hrs by Western blotting analysis. It counts as cell-based.
Assay [4] concerns the target T1, Hepatocyte growth factor receptor. Kind of assay: Inhibition of HGF-induced phosphorylation of c-MET in human DU145 cells after 2 hrs by Western blotting analysis. It counts as cell-based. The note with it: DU-145.
For assay [5], the target named is Hepatocyte growth factor receptor (Canis lupus familiaris) (UniProt Q75ZY9). Kind of assay: Inhibition of c-MET in MDCK cells assessed as inhibition of HGF-induced urokinase activity after 24 hrs. It counts as cell-based.
Assay [6] has the same target. Briefly: Inhibition of c-MET in MDCK cells assessed as inhibition of HGF-induced cell motility by wound healing assay. It counts as cell-based.
Assay [7] addresses T1, Hepatocyte growth factor receptor. Briefly: Inhibition of c-MET by ELISA assay.
The target in assay [8] is Hepatocyte growth factor receptor (Mus musculus) (UniProt P16056). Kind of assay: Inhibition of c-MET in mouse NIH3T3 cells assessed as reduction of TPR-Met phosphorylation at 20 uM after 2 hrs by Western blotting analysis. It counts as cell-based.
Hepatocyte growth factor receptor (Mus musculus), sequence (P16056 whole entry): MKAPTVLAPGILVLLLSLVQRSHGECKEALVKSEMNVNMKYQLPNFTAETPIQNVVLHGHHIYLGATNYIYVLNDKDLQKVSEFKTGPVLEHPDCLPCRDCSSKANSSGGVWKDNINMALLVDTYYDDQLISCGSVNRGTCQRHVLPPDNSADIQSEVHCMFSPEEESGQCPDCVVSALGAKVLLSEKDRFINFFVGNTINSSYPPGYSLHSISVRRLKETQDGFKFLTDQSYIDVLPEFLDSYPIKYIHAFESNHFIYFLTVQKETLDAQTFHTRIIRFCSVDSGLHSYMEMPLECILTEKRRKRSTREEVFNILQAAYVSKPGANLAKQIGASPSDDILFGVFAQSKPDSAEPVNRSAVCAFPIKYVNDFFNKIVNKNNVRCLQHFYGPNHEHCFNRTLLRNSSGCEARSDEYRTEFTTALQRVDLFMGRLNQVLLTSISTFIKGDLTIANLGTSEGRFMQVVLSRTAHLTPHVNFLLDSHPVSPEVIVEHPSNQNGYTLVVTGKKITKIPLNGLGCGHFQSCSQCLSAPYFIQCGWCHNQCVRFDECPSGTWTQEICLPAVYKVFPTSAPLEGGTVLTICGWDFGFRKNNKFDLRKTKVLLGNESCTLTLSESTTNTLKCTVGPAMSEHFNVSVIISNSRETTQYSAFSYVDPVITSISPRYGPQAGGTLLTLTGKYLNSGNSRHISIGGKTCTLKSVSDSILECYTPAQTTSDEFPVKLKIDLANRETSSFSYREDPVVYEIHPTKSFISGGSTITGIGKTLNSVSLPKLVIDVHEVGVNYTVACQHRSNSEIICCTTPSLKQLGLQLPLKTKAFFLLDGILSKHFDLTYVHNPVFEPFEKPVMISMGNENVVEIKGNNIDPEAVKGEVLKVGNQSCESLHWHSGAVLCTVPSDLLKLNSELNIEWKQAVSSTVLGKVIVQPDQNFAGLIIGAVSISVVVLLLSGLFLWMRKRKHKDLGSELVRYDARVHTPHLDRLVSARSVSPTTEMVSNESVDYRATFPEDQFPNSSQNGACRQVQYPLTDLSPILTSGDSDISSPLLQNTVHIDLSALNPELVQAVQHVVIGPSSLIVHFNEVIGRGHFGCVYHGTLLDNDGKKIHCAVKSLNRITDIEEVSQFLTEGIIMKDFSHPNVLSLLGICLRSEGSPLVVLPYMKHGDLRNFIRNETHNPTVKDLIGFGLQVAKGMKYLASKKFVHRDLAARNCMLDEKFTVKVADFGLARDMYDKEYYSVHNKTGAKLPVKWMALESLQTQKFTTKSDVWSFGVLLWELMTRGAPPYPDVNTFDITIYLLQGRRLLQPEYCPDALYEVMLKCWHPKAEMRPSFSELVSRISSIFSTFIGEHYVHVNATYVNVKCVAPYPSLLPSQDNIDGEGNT
Assay [9] addresses Hepatocyte growth factor receptor (Canis lupus familiaris) (UniProt Q75ZY9). Kind of assay: Inhibition of c-MET in MDCK cells assessed as inhibition of HGF-induced urokinase activity at 10 uM after 24 hrs. It counts as cell-based.
For assay [10] the target is unchanged. Kind of assay: Inhibition of HGF-induced phosphorylation of c-MET in MDCK cells after 2 hrs by Western blotting analysis. The format is cell-based.
The target in assay [11] is T1, Hepatocyte growth factor receptor. Kind of assay: Inhibition of HGF-induced phosphorylation of c-MET in human DU145 cells at 5 uM after 2 hrs by Western blotting analysis. The format is cell-based. The following applies: DU-145.
The target in assay [12] is Hepatocyte growth factor receptor (Canis lupus familiaris) (UniProt Q75ZY9). Briefly: Inhibition of c-MET in MDCK cells assessed as inhibition of HGF-induced cell scattering at 10 uM after 24 hrs by microscopic analysis. It counts as cell-based.
Assay [13] deals with T1, Hepatocyte growth factor receptor. Briefly: Inhibition of c-MET in human MKN45 cells assessed as reduction of phosphorylation at 20 uM after 2 hrs by Western blotting analysis. The format is cell-based. The following applies: MKN-45.
Assay [14] has as its target Hepatocyte growth factor receptor (Canis lupus familiaris) (UniProt Q75ZY9). Kind of assay: Inhibition of c-MET in MDCK cells assessed as inhibition of HGF-induced cell motility at 10 uM by wound healing assay. It counts as cell-based.
In assay [15] the target is T1, Hepatocyte growth factor receptor. Briefly: Inhibition of HGF-induced phosphorylation of c-MET in human A549 cells after 2 hrs by Western blotting analysis. It counts as cell-based.
Assay [16] shares this target. Kind of assay: Inhibition of HGF-induced phosphorylation of c-MET in human A549 cells at 5 uM after 2 hrs by Western blotting analysis. The format is cell-based.
The target is the same in assay [17]. Kind of assay: Inhibition of HGF-induced phosphorylation of c-MET in human NCI-H441 cells at 5 uM after 2 hrs by Western blotting analysis. The format is cell-based.
The target in assay [18] is Hepatocyte growth factor receptor (Canis lupus familiaris) (UniProt Q75ZY9). Kind of assay: Inhibition of c-MET in MDCK cells assessed as inhibition of HGF-induced branching morphogenesis after 5 days by microscopic analysis. The format is cell-based.
Assay [19] addresses T1, Hepatocyte growth factor receptor. Briefly: Inhibition of HGF-induced phosphorylation of c-MET in human NCI-H441 cells after 2 hrs by Western blotting analysis. The format is cell-based.

pIC50: −log10 of the molar value. Activity calls are given as the source filed them. The calls are words filed in the database; no cut-off is given here. Some results are limits rather than exact numbers.

T1 sequence (P08581 whole entry): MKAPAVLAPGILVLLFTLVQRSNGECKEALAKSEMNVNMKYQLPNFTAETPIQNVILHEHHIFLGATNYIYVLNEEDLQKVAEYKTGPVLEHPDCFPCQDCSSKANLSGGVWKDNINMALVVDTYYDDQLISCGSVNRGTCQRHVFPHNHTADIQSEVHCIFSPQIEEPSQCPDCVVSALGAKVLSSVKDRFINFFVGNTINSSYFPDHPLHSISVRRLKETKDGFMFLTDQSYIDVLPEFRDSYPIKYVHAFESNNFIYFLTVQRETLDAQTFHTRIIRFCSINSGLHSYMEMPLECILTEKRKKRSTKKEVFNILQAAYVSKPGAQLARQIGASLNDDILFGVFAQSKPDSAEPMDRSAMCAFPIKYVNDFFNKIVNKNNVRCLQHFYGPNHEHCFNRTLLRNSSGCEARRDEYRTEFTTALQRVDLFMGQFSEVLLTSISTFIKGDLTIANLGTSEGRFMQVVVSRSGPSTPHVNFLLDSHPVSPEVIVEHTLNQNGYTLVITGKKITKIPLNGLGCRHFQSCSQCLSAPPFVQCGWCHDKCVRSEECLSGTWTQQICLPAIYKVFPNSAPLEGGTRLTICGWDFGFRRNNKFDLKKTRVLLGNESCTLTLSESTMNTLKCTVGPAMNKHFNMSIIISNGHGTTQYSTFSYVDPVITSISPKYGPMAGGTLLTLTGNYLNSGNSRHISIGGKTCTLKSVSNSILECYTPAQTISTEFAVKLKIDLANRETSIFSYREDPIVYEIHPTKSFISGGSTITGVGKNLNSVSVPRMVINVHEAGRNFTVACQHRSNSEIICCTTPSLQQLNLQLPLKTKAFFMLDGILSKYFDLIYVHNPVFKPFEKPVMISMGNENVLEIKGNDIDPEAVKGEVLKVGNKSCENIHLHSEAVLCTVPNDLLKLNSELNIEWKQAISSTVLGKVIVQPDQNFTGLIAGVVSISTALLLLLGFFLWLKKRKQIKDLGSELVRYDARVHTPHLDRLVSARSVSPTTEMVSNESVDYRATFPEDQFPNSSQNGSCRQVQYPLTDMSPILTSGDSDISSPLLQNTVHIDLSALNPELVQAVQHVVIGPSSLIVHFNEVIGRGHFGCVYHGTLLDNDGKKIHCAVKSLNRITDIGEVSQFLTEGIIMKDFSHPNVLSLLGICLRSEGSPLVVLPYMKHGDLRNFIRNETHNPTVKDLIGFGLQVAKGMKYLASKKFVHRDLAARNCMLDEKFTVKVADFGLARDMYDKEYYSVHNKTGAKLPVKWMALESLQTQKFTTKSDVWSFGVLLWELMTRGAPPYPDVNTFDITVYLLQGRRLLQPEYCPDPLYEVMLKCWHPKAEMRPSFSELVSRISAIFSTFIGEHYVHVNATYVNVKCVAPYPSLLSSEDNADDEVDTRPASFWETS

In the case of `CC(C)C[C@H](c1c(O)c(C=O)c(O)c(C=O)c1O)[C@@]1(C)CC[C@@H]2[C@@H]1[C@H]1[C@@H](CC[C@@]2(C)O)C1(C)C`, the inhibition entry in [1] was “Active”.
`Cc1c(O)c(C=O)c(O)c(C(=O)CC(C)C)c1O`: the inhibition result in [1] is “inactive”.
`CC(C)CC(=O)c1c(O)c(C=O)c(O)c(C=O)c1O`: the inhibition entry in assay [1] is “inactive”.
In the case of `CC(C)C[C@@H](c1c(O)c(C=O)c(O)c(C=O)c1O)[C@@]1(C)CC[C@@H]2[C@@H]1[C@H]1[C@@H](CC[C@@]2(C)O)C1(C)C`, the inhibition entry in assay [1] is “Active”.
In the case of `C[C@@H]1CC[C@@H]2[C@@H]1[C@H]1[C@@H](CC[C@@]2(C)O)C1(C)C`, the inhibition result in [1] is “inactive”.
Take `CC1(C)[C@H]2[C@H]3[C@@H](CC[C@]3(C)O)[C@](C)(O)CC[C@H]21`: in assay [1], the inhibition entry is “inactive”.
For `CC(C)CC(=O)c1c(O)c(C=O)c(O)c(C[C@@]2(C)CC[C@@H]3[C@@H]2[C@H]2[C@@H](CC[C@@]3(C)O)C2(C)C)c1O` [EUCALYPTIN A], the inhibition entry was “Dose-dependent effect” in assay [2]; > 50% in [3]; “Dose-dependent effect” in assay [4]; “Dose-dependent effect” in [5]; “Dose-dependent effect” in assay [6]; 80% in [9]. Moreover, the inhibition result in assay [10] is “Dose-dependent effect”; in assay [11], > 50%; in assay [15] it was “Dose-dependent effect”; in [16] it was > 50%; in assay [17], > 50%; in assay [19], “Dose-dependent effect”. Further, the pIC50 in [7] was < 4.30. In addition, the inhibition entry in [8] and in [13] was “inactive” in each case. For the same compound, the inhibition entry in assay [1], in assay [12], in assay [14] and in assay [18] was “Active” throughout.
